# In patent US10258041B2, “Substituted pyrazolylpyrazole derivative and use of same as herbicide” (KYOYU AGRI CO., LTD., priority 2015, dated 2019):
# What was measured:
# Type in all cases: in vivo
# [1] = system: Galinsoga parviflora; assay: Weed foliar treatment test (Test 4, higher leaf stage); conditions: 10 g a.i./10a; foliar spray at 4.0 to 5.0 leaf stage of Digitaria ciliaris; 20 days, 25° C.
# Protocol: (§1) Evaluation of herbicidal efficacy was carried out by comparing growth inhibition rate (%) with an untreated group, while evaluation of chemical damage was carried out by comparing growth inhibition rate (%) with the state of a complete eradication group, and were evaluated at 11 levels indicated below. • 0 (exponent): 0% to less than 10% (growth inhibition rate) • 1: 10% to less than 20% • 2: 20% to less than 30% • 3: 30% to less than 40% • 4: 40% to less than 50% • 5: 50% to less than 60% • 6: 60% to less than 70% • 7: 70% to less than 80% • 8: 80% to less than 90% • 9: 90% to less than 100% • 10: 100% Field soil was filled into a 1/4500 are pot followed by seeding with Digitaria ciliaris and Galinsoga parviflora, covering with soil and cultivating in a glass greenhouse at an average atmospheric temperature of 25° C. Wettable powders of Target Compound (I) shown, in Table 1 prepared in compliance with the preparation examples were diluted with water to the prescribed amount of chemical and uniformly sprayed onto the weeds using 100 liters of sprayed water per 10 are when Digitaria ciliaris had grown to the 4.0 to 5.0 leaf stage (plant height: 10 cm to 15 cm). After treating for 20 days in a glass greenhouse at an average atmospheric temperature of 25° C., the herbicidal efficacy thereof was investigated. Evaluation of herbicidal efficacy was carried out in the same manner as the above-mentioned Test Example 1.
# [2] = system: Digitaria ciliaris; assay: as above; conditions: 10 g a.i./10a; foliar spray at 4.0 to 5.0 leaf stage of Digitaria ciliaris (plant height 10 cm to 15 cm); 20 days, 25° C.
# Protocol: as §1
# [3] = system: Oryza sativa; assay: Paddy herbicidal activity test, chemical damage to transplanted rice; conditions: rice transplanted in 2.0 leaf stage, 30 days
# Protocol: (§2) Rice paddy soil was filled into a 1/10000 are pot followed by the addition of suitable amounts of water and chemical fertilizer, kneading, seeding with Echinochloa crus-galli, Monochoria vaginalis and Scirpus juncoides and maintaining in an irrigated state at a water depth of 3 cm. Wettable powders of Target Compound (I) shown in Table 1 prepared in compliance with the preparation examples were diluted with a suitable amount of water, rice plants in the 2.0 leaf stage were transplanted during 3.5 leaf stage of Echinochloa crus-galli, and treated by dropping in chemical in the prescribed amount per 10 are using a pipette. After treating for 30 days in a glass greenhouse at an average atmospheric temperature of […], the herbicidal efficacy thereof was investigated. Evaluation of herbicidal efficacy was carried out by comparing growth inhibition rate (%) with an untreated group, while evaluation of chemical damage was carried out by comparing growth inhibition rate (%) with the state of a complete eradication group, and were evaluated at 11 levels indicated below. • 0 (exponent): 0% to less than 10% (growth inhibition rate) • 1: 10% to less than 20% • 2: 20% to less than 30% • 3: 30% to less than 40% • 4: 40% to less than 50% • 5: 50% to less than 60% • 6: 60% to less than 70% • 7: 70% to less than 80% • 8: 80% to less than 90% • 9: 90% to less than 100% • 10: 100%
# [4] = system: Echinochloa crus-galli; assay: Paddy herbicidal activity test; conditions: irrigated pot, treated at 3.5 leaf stage of Echinochloa crus-galli, 30 days
# Protocol: as §2
# [5] = system: Scirpus juncoides; assay: Paddy herbicidal activity test; conditions: irrigated pot, treated at 3.5 leaf stage of Echinochloa crus-galli, 30 days
# Protocol: as §2
# [6] = system: Monochoria vaginalis; assay: Paddy herbicidal activity test; conditions: irrigated pot, treated at 3.5 leaf stage of Echinochloa crus-galli, 30 days
# Protocol: as §2
# [7] = system: Amaranthus retroflexus; assay: Weed foliar treatment test (Test 3); conditions: foliar spray at 1.0 to 2.0 leaf stage of Digitaria ciliaris, 3 weeks, 25° C.
# Protocol: (§3) Evaluation of herbicidal efficacy was carried out by comparing growth inhibition rate (%) with an untreated group, while evaluation of chemical damage was carried out by comparing growth inhibition rate (%) with the state of a complete eradication group, and were evaluated at 11 levels indicated below. • 0 (exponent): 0% to less than 10% (growth inhibition rate) • 1: 10% to less than 20% • 2: 20% to less than 30% • 3: 30% to less than 40% • 4: 40% to less than 50% • 5: 50% to less than 60% • 6: 60% to less than 70% • 7: 70% to less than 80% • 8: 80% to less than 90% • 9: 90% to less than 100% • 10: 100% Soil was filled into a 1/6000 are pot followed by seeding with Digitaria ciliaris, Chenopodium album and Amaranthus retroflexus, covering with soil, and cultivating in a glass greenhouse at an average atmospheric temperature of 25° C. Wettable powders of Target Compound (I) shown in Table 1 prepared in compliance with the preparation examples were diluted with water to the prescribed amount of chemical and uniformly sprayed onto the weeds using 150 liters of sprayed water per 10 are when Digitaria ciliaris had grown to the 1.0 to 2.0 leaf stage. After treating for 3 weeks in a glass greenhouse at an average atmospheric temperature of 25° C., the herbicidal efficacy thereof was investigated. Evaluation of herbicidal efficacy was carried out in the same manner as the above-mentioned Test Example 1.
# [8] = system: Digitaria ciliaris; assay: Weed foliar treatment test (Test 3); conditions: foliar spray at 1.0 to 2.0 leaf stage of Digitaria ciliaris, 3 weeks, 25° C.
# Protocol: as §3
# [9] = system: Chenopodium album; assay: Weed foliar treatment test (Test 3); conditions: foliar spray at 1.0 to 2.0 leaf stage of Digitaria ciliaris, 3 weeks, 25° C.
# Protocol: as §3
# [10] = system: Amaranthus retroflexus; assay: Farming soil treatment test; conditions: soil surface spray prior to weed growth, 30 days, 30° C.
# Protocol: (§4) Evaluation of herbicidal efficacy was carried out by comparing growth inhibition rate (%) with an untreated group, while evaluation of chemical damage was carried out by comparing growth inhibition rate (%) with the state of a complete eradication group, and were evaluated at 11 levels indicated below. • 0 (exponent): 0% to less than 10% (growth inhibition rate) • 1: 10% to less than 20% • 2: 20% to less than 30% • 3: 30% to less than 40% • 4: 40% to less than 50% • 5: 50% to less than 60% • 6: 60% to less than 70% • 7: 70% to less than 80% • 8: 80% to less than 90% • 9: 90% to less than 100% • 10: 100% Field soil was filled into a 1/6000 are pot followed by seeding with Digitaria ciliaris, Chenopodium album and Amraranthus retroflexus and covering with soil. Wettable powders of compounds of formula (I) shown in Table 1 prepared in compliance with the preparation examples were diluted with water to the prescribed amount of chemical and uniformly sprayed onto each soil surface layer using 100 liters of sprayed water per 10 are prior to weed growth following seeding. After treating for 30 days in a glass greenhouse at an average atmospheric temperature of 30° C., the herbicidal efficacy thereof was investigated. Evaluation of herbicidal efficacy was carried out in the same manner as the above-mentioned Test Example 1,
# [11] = system: Digitaria ciliaris; assay: Farming soil treatment test; conditions: soil surface spray prior to weed growth, 30 days, 30° C.
# Protocol: as §4
# [12] = system: Chenopodium album; assay: Farming soil treatment test; conditions: soil surface spray prior to weed growth, 30 days, 30° C.
# Protocol: as §4
compound,measurement,setting,value
N#Cc1cnn(-c2nn3c(c2Cl)CCCC3)c1NC(=O)CCCl [Control Agent 1.36],"herbicidal efficacy (growth inhibition rate level), Galinsoga parviflora",[1],5 (5: 50% to less than 60%)
same,"herbicidal efficacy (growth inhibition rate level), Digitaria ciliaris",[2],1 (1: 10% to less than 20%)
same,"chemical damage (growth inhibition rate level), Oryza sativa",[3]; 1 g a.i./10a,2 (2: 20% to less than 30%)
same,"chemical damage (growth inhibition rate level), Oryza sativa",[3]; 5 g a.i./10a,3 (3: 30% to less than 40%)
same,"herbicidal efficacy (growth inhibition rate level), Echinochloa crus-galli",[4]; 1 g a.i./10a,2 (2: 20% to less than 30%)
same,"herbicidal efficacy (growth inhibition rate level), Echinochloa crus-galli",[4]; 5 g a.i./10a,4 (4: 40% to less than 50%)
same,"herbicidal efficacy (growth inhibition rate level), Scirpus juncoides",[5]; 1 g a.i./10a,1 (1: 10% to less than 20%)
same,"herbicidal efficacy (growth inhibition rate level), Scirpus juncoides",[5]; 5 g a.i./10a,3 (3: 30% to less than 40%)
same,"herbicidal efficacy (growth inhibition rate level), Monochoria vaginalis",[6]; 1 g a.i./10a,3 (3: 30% to less than 40%)
same,"herbicidal efficacy (growth inhibition rate level), Monochoria vaginalis",[6]; 5 g a.i./10a,4 (4: 40% to less than 50%)
same,"herbicidal efficacy (growth inhibition rate level), Amaranthus retroflexus",[7]; 5 g a.i./10a,5 (5: 50% to less than 60%)
same,"herbicidal efficacy (growth inhibition rate level), Amaranthus retroflexus",[7]; 10 g a.i./10a,6 (6: 60% to less than 70%)
same,"herbicidal efficacy (growth inhibition rate level), Digitaria ciliaris",[8]; 5 g a.i./10a,2 (2: 20% to less than 30%)
same,"herbicidal efficacy (growth inhibition rate level), Digitaria ciliaris",[8]; 10 g a.i./10a,3 (3: 30% to less than 40%)
same,"herbicidal efficacy (growth inhibition rate level), Chenopodium album",[9]; 5 g a.i./10a,4 (4: 40% to less than 50%)
same,"herbicidal efficacy (growth inhibition rate level), Chenopodium album",[9]; 10 g a.i./10a,4 (4: 40% to less than 50%)
same,"herbicidal efficacy (growth inhibition rate level), Amaranthus retroflexus",[10]; 5 g a.i./10a,4 (4: 40% to less than 50%)
same,"herbicidal efficacy (growth inhibition rate level), Amaranthus retroflexus",[10]; 10 g a.i./10a,5 (5: 50% to less than 60%)
same,"herbicidal efficacy (growth inhibition rate level), Digitaria ciliaris",[11]; 5 g a.i./10a,3 (3: 30% to less than 40%)
same,"herbicidal efficacy (growth inhibition rate level), Digitaria ciliaris",[11]; 10 g a.i./10a,4 (4: 40% to less than 50%)
same,"herbicidal efficacy (growth inhibition rate level), Chenopodium album",[12]; 5 g a.i./10a,4 (4: 40% to less than 50%)
same,"herbicidal efficacy (growth inhibition rate level), Chenopodium album",[12]; 10 g a.i./10a,4 (4: 40% to less than 50%)
